Experimental data taken from PMC3431135, “Pharmacological Evaluation and Docking Studies of 3-Thiadiazolyl- and Thioxo-1,2,4-triazolylcoumarin Derivatives as Cholinesterase Inhibitors” (ISRN Pharmacology, 2012).
Read-outs that look alike come from different tables or passages of the source.

Columns and labels:
[1] = biological target: T1, BChE from horse serum (hBChE) (Equus caballus, UniProt P81908); assay: biochemical; assay type: biochemical
T1 construct: butyrylcholinesterase (BChE) (EC 3.1.1.8, from horse serum); purchased Sigma-Aldrich (Steinheim, Germany); host or cells: horse serum (natural source)
Procedure: (§1) Acetylcholinesterase (AChE) (EC 3.1.1.7, type VI-S from Electric Eel), butyrylcholinesterase (BChE) (EC 3.1.1.8, from horse serum). AChE and BChE were also isolated from rabbit brain and serum, respectively.
(§2) The inhibitory activities of coumarin derivatives were measured quantitatively by Ellman's method and performed with some modifications as in Ingkaninan et al. method by using 96-microliter well plate. Series of newly synthesized coumarin derivatives were tested as AChE and BChE inhibitors. Initially, each compound was dissolved in DMSO (end concentration of DMSO was less than 1% in assay) and tested at a final concentration of 1 mM or 10 μL of DMSO (as negative control) in wells for initial screening. […] Reaction mixture comprised of 50 μL of 3 mM DTNB (5,5′-dithiobis(2-nitrobenzoic acid)) in assay buffer, 10 μL of test compound, and 10 μL of AChE (0.031 IU/mL) or BChE (0.5 IU/mL). This mixture was preincubated at 25°C for 10 min. After preincubation, enzymatic reaction was started by addition of 10 μL of 10 mM MBTCCl (butyrylthiocholine chloride) or ATCI (acetylthiocholine iodide) according to the respective enzyme and mixture was incubated again for 15 min. […] Enzyme dilution buffer consisted of 50 mM Tris-HCl containing 0.1% (w/v) BSA (pH 8). The effect of DMSO on activity of enzyme was subtracted by a negative control containing DMSO, instead of inhibitor. Each concentration was analyzed in triplicate and Ki values were calculated from IC50 values by using a nonlinear curve fitting program PRISM 5.0 (GraphPad, San Diego, California, USA).

[2] = biological target: T2, AChE from electrophorus electricus (EeAChE) (Electrophorus electricus, UniProt O42275); assay: biochemical
T2 construct: Acetylcholinesterase (AChE) (EC 3.1.1.7, type VI-S from Electric Eel); purchased Sigma-Aldrich (Steinheim, Germany) type VI-S; host or cells: electric eel (natural source)
Procedure: as §1, §2

[3] = biological target: T3, BChE from rabbit serum (rBChE) (Oryctolagus cuniculus, UniProt P21927); assay: biochemical
T3 construct: BChE was obtained from rabbit blood serum by applying the techniques of centrifugation; from tissue; host or cells: rabbit blood serum
Procedure: as §1
(§3) AChE was isolated from rabbit brain. Heads were decapitated and brains were thawed and homogenized for 30 sec in 2.5 volumes of 1 mM EDTA, 0.32 M ice cold sucrose, 10 μM tetracain (pH7.0). The homogenates were centrifuged at 105,000 ×g for 60 min (4°C). The supernatants were removed and pellets were again homogenized in same volume of 0.2% triton phosphate buffer. After centrifugation, the supernatants were again removed and pellets were rehomogenized for 10 sec in 2.5 volumes of 1% triton phosphate buffer. […] BChE was obtained from rabbit blood serum by applying the techniques of centrifugation. The purified enzymes were stored at –80°C.
as §2

[4] = biological target: T4, rabbit AChE (rAChE), isolated from rabbit brain (Oryctolagus cuniculus, UniProt Q29499); assay: biochemical
T4 construct: AChE was isolated from rabbit brain; from tissue; host or cells: rabbit brain
Procedure: as §1, §3, §2

[5] = tested on: BChE; assay: Kinetic characterization of BChE inhibition (Lineweaver-Burk); assay type: biochemical; settings: Lineweaver-Burk plots; inhibitor 0–5 nM; substrate BTCCl
Procedure: (§4) […]. […] As Km value was increasing and value of Vmax remained almost same in the presence or absence of inhibitor, indication of competitive type of inhibitory mechanism against AChE and BChE.
(§5) Kinetic characterization of AChE and BChE was performed by using Ellman's method. […]. Enzyme kinetic characterization studies were performed under same incubation conditions as described above by using ATCI and BTCCl as substrates and DTNB was used as chromophoric reagent. A parallel control with no inhibitor in the mixture was added for comparison. Each concentration was analyzed in triplicate; and Lineweaver-Burk (1/V versus 1/[S]) plot was constructed using Prism software.

[6] = tested on: AChE; assay: Kinetic characterization of AChE inhibition (Lineweaver-Burk); assay type: biochemical; settings: Lineweaver-Burk plots; inhibitor 0–100 nM; substrate ATCI
Procedure: as §4, §5

[7] = horse serum BChE, mean ± SEM of three experiments, Ki calculated from IC50, substrate BTCCl, read-out: hBChE Ki ± SEM
[8] = mean ± SEM of three experiments, Ki calculated from IC50, substrate ATCI, read-out: EeAChE Ki ± SEM
[9] = rabbit serum BChE, mean ± SEM of three experiments, Ki calculated from IC50, substrate BTCCl, read-out: rBChE Ki ± SEM
[10] = mean ± SEM of three experiments, Ki calculated from IC50, substrate ATCI, read-out: rAChE Ki ± SEM

T3 sequence (P21927 9-581): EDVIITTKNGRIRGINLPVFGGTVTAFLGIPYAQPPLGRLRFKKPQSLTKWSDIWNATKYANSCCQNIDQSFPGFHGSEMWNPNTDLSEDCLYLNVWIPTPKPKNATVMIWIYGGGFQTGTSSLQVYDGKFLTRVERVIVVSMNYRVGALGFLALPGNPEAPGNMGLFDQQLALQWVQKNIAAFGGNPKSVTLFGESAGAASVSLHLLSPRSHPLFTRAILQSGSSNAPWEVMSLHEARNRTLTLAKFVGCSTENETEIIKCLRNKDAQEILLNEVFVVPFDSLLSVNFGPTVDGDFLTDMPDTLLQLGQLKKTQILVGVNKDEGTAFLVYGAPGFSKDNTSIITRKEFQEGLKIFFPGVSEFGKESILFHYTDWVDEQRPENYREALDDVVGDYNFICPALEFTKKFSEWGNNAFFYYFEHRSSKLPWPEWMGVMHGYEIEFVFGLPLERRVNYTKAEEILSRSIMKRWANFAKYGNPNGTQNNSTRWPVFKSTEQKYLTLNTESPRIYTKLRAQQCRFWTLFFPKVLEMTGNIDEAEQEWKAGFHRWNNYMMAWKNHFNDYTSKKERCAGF
T1 sequence (P81908 whole entry): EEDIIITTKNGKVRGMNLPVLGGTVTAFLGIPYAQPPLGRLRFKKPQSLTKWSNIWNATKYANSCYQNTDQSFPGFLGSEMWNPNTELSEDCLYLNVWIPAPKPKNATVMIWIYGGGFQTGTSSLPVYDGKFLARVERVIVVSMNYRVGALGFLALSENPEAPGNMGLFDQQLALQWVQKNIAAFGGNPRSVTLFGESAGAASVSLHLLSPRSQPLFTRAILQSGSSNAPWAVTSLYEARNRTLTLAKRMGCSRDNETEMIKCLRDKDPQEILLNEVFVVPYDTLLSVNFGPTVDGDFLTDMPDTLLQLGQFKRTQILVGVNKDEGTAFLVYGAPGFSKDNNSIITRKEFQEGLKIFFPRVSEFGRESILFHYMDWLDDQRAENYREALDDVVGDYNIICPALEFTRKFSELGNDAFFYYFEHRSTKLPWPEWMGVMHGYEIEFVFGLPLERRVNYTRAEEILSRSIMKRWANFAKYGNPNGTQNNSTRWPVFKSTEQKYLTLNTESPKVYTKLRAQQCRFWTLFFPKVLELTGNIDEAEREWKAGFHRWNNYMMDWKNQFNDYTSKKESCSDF
T2 sequence (O42275 24-633): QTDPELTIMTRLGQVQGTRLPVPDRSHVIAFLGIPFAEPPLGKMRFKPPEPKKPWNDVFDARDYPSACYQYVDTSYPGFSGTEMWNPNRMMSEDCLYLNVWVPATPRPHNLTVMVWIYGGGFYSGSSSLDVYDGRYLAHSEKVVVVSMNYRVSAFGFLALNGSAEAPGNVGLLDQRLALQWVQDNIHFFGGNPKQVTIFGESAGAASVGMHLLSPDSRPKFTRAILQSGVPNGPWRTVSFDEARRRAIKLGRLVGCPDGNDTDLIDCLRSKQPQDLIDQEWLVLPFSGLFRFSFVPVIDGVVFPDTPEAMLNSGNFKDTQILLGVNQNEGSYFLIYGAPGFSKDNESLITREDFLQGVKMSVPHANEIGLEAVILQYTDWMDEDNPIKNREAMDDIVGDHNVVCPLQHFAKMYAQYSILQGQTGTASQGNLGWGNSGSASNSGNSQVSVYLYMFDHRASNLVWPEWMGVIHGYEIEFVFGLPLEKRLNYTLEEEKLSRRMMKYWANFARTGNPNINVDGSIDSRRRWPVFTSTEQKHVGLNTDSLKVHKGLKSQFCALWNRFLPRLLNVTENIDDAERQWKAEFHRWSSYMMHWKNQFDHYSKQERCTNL
T4 sequence (Q29499 2-584): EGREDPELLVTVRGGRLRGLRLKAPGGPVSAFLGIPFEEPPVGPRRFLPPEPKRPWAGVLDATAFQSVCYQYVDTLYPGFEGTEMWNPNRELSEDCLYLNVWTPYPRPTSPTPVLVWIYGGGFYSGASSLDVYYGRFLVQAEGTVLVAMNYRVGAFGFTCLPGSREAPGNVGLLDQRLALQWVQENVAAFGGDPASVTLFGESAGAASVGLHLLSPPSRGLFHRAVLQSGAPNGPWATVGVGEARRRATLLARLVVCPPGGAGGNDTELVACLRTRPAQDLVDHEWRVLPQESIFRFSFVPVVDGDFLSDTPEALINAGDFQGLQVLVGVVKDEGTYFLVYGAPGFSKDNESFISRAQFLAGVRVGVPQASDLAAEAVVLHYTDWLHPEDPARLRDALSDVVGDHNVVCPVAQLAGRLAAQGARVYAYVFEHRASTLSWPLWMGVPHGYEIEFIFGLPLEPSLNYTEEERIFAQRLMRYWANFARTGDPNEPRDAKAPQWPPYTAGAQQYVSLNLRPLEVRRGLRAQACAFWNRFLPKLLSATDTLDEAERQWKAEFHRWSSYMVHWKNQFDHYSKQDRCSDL

| SMILES | Ki [1, 7] | Ki [2, 8] | Ki [3, 9] | Ki [4, 10] | fold more active on hBChE than neostigmine ([1]; ratio of Ki values versus neostigmine) | Type of inhibition of BChE [5] | Type of inhibition of AChE [6] | Ki [1] | Ki [2] | Ki [3] | Ki [4] |
| --- | --- | --- | --- | --- | --- | --- | --- | --- | --- | --- | --- |
| O=c1oc2ccccc2cc1-c1n[nH]c(=S)n1-c1ccccc1Cl [Compound 3a, 3-(4-(2-Chlorophenyl)-5-thioxo-4,5-dihydro-1H-1,2,4-triazol-3-yl)-2H-chromen-2-one] | 190 ± 10 nM | 2420 ± 430 nM | 21400 ± 1600 nM | 470 ± 70 nM | – | – | – | – | – | – | – |
| O=c1oc2ccccc2cc1-c1n[nH]c(=S)n1-c1cccc(Cl)c1 [Compound 3b, 3-(4-(3-Chlorophenyl)-5-thioxo-4,5-dihydro-1H-1,2,4-triazol-3-yl)-2H-chromen-2-one] | 36 ± 3 nM | 320 ± 70 nM | 65700 ± 2000 nM | 600 ± 30 nM | 2 fold | – | – | – | – | – | – |
| O=c1oc2ccccc2cc1-c1n[nH]c(=S)n1-c1ccc(Cl)cc1 [Compound 3c, 3-(4-(4-Chlorophenyl)-5-thioxo-4,5-dihydro-1H-1,2,4-triazol-3-yl)-2H-chromen-2-one] | 1340 ± 20 nM | 450 ± 90 nM | 520 ± 30 nM | 13 ± 2 nM | – | – | – | – | – | – | – |
| Cc1cccc(-n2c(-c3cc4ccccc4oc3=O)n[nH]c2=S)c1 [Compound 3d, 3-(5-Thioxo-4-m-tolyl-4,5-dihydro-1H-1,2,4-triazol-3-yl)-2H-chromen-2-one] | 180 ± 20 nM | 5770 ± 310 nM | 1110 ± 50 nM | 82 ± 2 nM | – | – | – | – | – | – | – |
| Cc1ccc(-n2c(-c3cc4ccccc4oc3=O)n[nH]c2=S)cc1 [Compound 3e, 3-(5-Thioxo-4-p-tolyl-4,5-dihydro-1H-1,2,4-triazol-3-yl)-2H-chromen-2-one] | 130 ± 10 nM | 18400 ± 3400 nM | 140 ± 50 nM | 39 ± 2 nM | – | – | – | – | – | – | – |
| COc1ccccc1-n1c(-c2cc3ccccc3oc2=O)n[nH]c1=S [Compound 3f, 3-(4-(2-Methoxyphenyl)-5-thioxo-4,5-dihydro-1H-1,2,4-triazol-3-yl)-2H-chromen-2-one] | 280 ± 10 nM | 4060 ± 340 nM | 690 ± 20 nM | 61 ± 5 nM | – | – | – | – | – | – | – |
| COc1cccc(-n2c(-c3cc4ccccc4oc3=O)n[nH]c2=S)c1 [Compound 3g, 3-(4-(3-Methoxyphenyl)-5-thioxo-4,5-dihydro-1H-1,2,4-triazol-3-yl)-2H-chromen-2-one] | 7550 ± 30 nM | 980 ± 340 nM | 22100 ± 200 nM | 46 ± 2 nM | – | – | – | – | – | – | – |
| O=c1oc2ccccc2cc1-c1nnc(Nc2ccccc2Cl)s1 [Compound 4a, 3-(5-(2-Chlorophenylamino)-1,3,4-thiadiazol-2-yl)-2H-chromen-2-one] | 100 ± 10 nM | 5750 ± 780 nM | 1390 ± 20 nM | 31 ± 8 nM | – | – | – | – | – | – | – |
| O=c1oc2ccccc2cc1-c1nnc(Nc2cccc(Cl)c2)s1 [Compound 4b, 3-(5-(3-Chlorophenylamino)-1,3,4-thiadiazol-2-yl)-2H-chromen-2-one] | 540 ± 90 nM | 280 ± 70 nM | 2260 ± 20 nM | 28 ± 2 nM | – | competitive inhibitor | competitive inhibitor | – | – | – | – |
| O=c1oc2ccccc2cc1-c1nnc(Nc2ccc(Cl)cc2)s1 [Compound 4c, 3-(5-(4-Chlorophenylamino)-1,3,4-thiadiazol-2-yl)-2H-chromen-2-one] | 420 ± 10 nM | 48600 ± 4400 nM | 350 ± 10 nM | 240 ± 21 nM | – | – | – | – | – | – | – |
| Cc1cccc(Nc2nnc(-c3cc4ccccc4oc3=O)s2)c1 [Compound 4d, 3-(5-(m-Toluidino)-1,3,4-thiadiazol-2-yl)-2H-chromen-2-one] | 660 ± 10 nM | 28000 ± 1630 nM | 510 ± 10 nM | 17 ± 2 nM | – | – | – | – | – | – | – |
| Cc1ccc(Nc2nnc(-c3cc4ccccc4oc3=O)s2)cc1 [Compound 4e, 3-(5-(p-Toluidino)-1,3,4-thiadiazol-2-yl)-2H-chromen-2-one] | 280 ± 20 nM | 6190 ± 290 nM | 460 ± 10 nM | 561 ± 22 nM | – | – | – | – | – | – | – |
| COc1ccccc1Nc1nnc(-c2cc3ccccc3oc2=O)s1 [Compound 4f, 3-(5-(2-Methoxyphenylamino)-1,3,4-thiadiazol-2-yl)-2H-chromen-2-one] | 230 ± 10 nM | 7160 ± 10 nM | 1360 ± 30 nM | 81 ± 1 nM | – | – | – | – | – | – | – |
| COc1cccc(Nc2nnc(-c3cc4ccccc4oc3=O)s2)c1 [Compound 4g, 3-(5-(3-Methoxyphenylamino)-1,3,4-thiadiazol-2-yl)-2H-chromen-2-one] | 340 ± 10 nM | 8260 ± 10 nM | 1520 ± 30 nM | 21 ± 1 nM | – | – | – | – | – | – | – |
| CN(C)C(=O)Oc1cccc([N+](C)(C)C)c1 [Neostigmine, neostigmine methylsulfate, reference compound] | – | – | – | – | – | – | – | 60 ± 5 nM | 56 ± 6 nM | 47 ± 6 nM | 48 ± 3 nM |
